Data from ChEMBL document CHEMBL1201862, “PubChem BioAssay data set” (2004).
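In this assay, cells in 96-well plates receive the compound at five concentrations for 48 hours. Endpoints are linearly interpolated between the surrounding concentrations. GI50: concentration for 50% inhibition of growth.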 Active and inactive are the calls of the source. Cut-off read from the data, not from the text of the source: active = GI50 up to about 1.1 µM and inactive = higher.

Tests used:
Test in all cases: inhibition of tumour cell growth, NCI panel, 48 h
[1] = system: SK-MEL-2
[2] = system: UACC-62
[3] = system: SK-MEL-28
[4] = system: MDA-N
[5] = system: NCI-H226
[6] = system: OVCAR-4
[7] = system: TK-10
[8] = system: EKVX
[9] = system: HCT-116
[10] = system: ACHN
[11] = system: MDA-MB-231
[12] = system: UACC-257
[13] = system: SF-295
[14] = system: HL-60
[15] = system: NCI/ADR-RES
[16] = system: HCC 2998
[17] = system: KM12
[18] = system: NCI-H522
[19] = system: U-251
[20] = system: A549

Measured: GI50

CC(=O)OCC1OC(c2c(OC(C)=O)cc(C)c3c(=O)cc(/C(C(C)=O)=C(\C)O)oc23)C(OC(C)=O)C(OC(C)=O)C1OC(C)=O (stereo not given)
inactive: [1] > 100 µM | [2] > 100 µM | [3] > 100 µM | [4] > 100 µM | [5] > 100 µM | [6] > 100 µM | [7] > 100 µM | [8] > 100 µM | [9] > 100 µM | [10] > 100 µM | [11] > 100 µM | [12] > 100 µM | [13] > 100 µM | [14] > 100 µM | [15] > 100 µM | [16] > 100 µM | [17] > 100 µM | [18] > 100 µM | [19] > 100 µM | [20] > 100 µM

COC(=O)C1(Cc2ccc3c(c2)CCC3)Cc2ccccc2C1O (stereo not given)
inactive: [1] 12.8 µM | [2] 14.5 µM | [3] 16.9 µM | [4] 3.36 µM | [5] 17.3 µM | [6] 13.9 µM | [7] 22.1 µM | [8] 22.8 µM | [9] 17.4 µM | [10] 18.3 µM | [11] 21.3 µM | [12] 15 µM | [13] 17.5 µM | [14] 37.5 µM | [15] 18.7 µM | [16] 15.3 µM | [17] 22.6 µM | [18] 15.9 µM | [19] 16.8 µM | [20] 20.5 µM

O=[N+]([O-])c1ccccc1OCCOc1ccccc1[N+](=O)[O-]
inactive: [1] > 100 µM | [2] > 100 µM | [3] > 100 µM | [4] > 100 µM | [5] > 100 µM | [6] > 100 µM | [7] > 100 µM | [8] > 100 µM | [9] > 100 µM | [10] > 100 µM | [11] 96.2 µM | [12] > 100 µM | [13] > 100 µM | [14] > 100 µM | [15] > 100 µM | [16] > 100 µM | [17] > 100 µM | [18] > 100 µM | [19] > 100 µM | [20] > 100 µM

COc1cc(C2SCC(=O)N2c2ccc(NC(C)=O)cc2)cc(OC)c1OC (stereo not given)
inactive: [1] > 100 µM | [2] 25.5 µM | [3] > 100 µM | [4] 33.8 µM | [5] > 100 µM | [6] > 100 µM | [7] > 100 µM | [8] > 100 µM | [9] 69.7 µM | [10] > 100 µM | [11] > 100 µM | [12] > 100 µM | [13] > 100 µM | [14] > 100 µM | [15] 88.3 µM | [16] > 100 µM | [17] > 100 µM | [18] 71.4 µM | [19] > 100 µM | [20] > 100 µM
